Patent US12209102B2, “Heterocyclic compounds and uses thereof” (Kumquat Biosciences Inc., priority 2022, dated 2025)

Key:
[1] = molecular target: T1, K-Ras G12S (Homo sapiens, UniProt P01116, G12S); experiment: HTRF resonance energy transfer assay, K-Ras G12S / SOS1 interaction; type: biochemical; details: HTRF assay of Example 5; read-out: IC50 against K-Ras G12S
T1 construct: made in house; host or cells: E. coli BL21 (DE3)
Outline: (§1)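 GST-tagged K-Ras (WT or mutant) bound to anti-GST-Eu donor was mixed with His-hSOS1 bound to anti-6His-XL665 acceptor in ~5 mM HEPES pH 7.4, 150 mM NaCl, 1 mM DTT, 0.05% BSA, 0.0025% Igepal. HTRF (ex 337, em 620/665 nm) was read after ~10 min or longer. IC50 came from the 665/620 ratio over duplicates from 10 μM to 0.01 μM.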

[2] = molecular target: T2, K-Ras G12V (Homo sapiens, UniProt P01116, G12V); experiment: HTRF resonance energy transfer assay, K-Ras G12V / SOS1 interaction; type: biochemical; details: HTRF assay of Example 5; read-out: IC50 against K-Ras G12V
T2 construct: made in house; host or cells: E. coli BL21 (DE3)
Outline: as §1

[3] = tested on: SW620 cells; experiment: Ras cellular assay, growth of cells with K-Ras G12V mutation (CellTiter-Glo); type: cell-based; details: Homo sapiens, SW-620; cell growth, Example 9, G12V mutation; read-out: IC50 against SW620 cells
Experimental: For example, this assay can be also used to assess a selective growth inhibition of a mutant Ras protein relative to a wildtype, or relative to a different mutant Ras protein.
SW620 (ATCC CCL-227) and Capan-1 (ATCC HTB-79) cell lines comprise a G12V mutation and can be used to assess Ras cellular signaling in vitro, e.g., in response to the compounds herein. SW620 culture medium is prepared with RPMI-1640 and 10% heat-inactivated FBS. Capan-1 culture medium is prepared with RPMI-1640 and 10% heat-inactivated FBS. A CellTiter-Glo (CTG) luminescent based assay (Promega) is used to assess growth of the cells, as a measurement of the ability of the compounds herein to inhibit Ras signaling in the cells. The cells (e.g., 800 per well) are seeded in their respective culture medium in standard tissue culture-treated 384-well format plates (Falcon #08-772-116) or ultra-low attachment surface 384-well format plates (S-Bio #MS-9384WZ). The day after plating, cells are treated with a dilution series (e.g., a 10 point 3-fold dilution series) of the compounds herein (e.g., approximately 40 μL final volume per well). Cell viability can be monitored (e.g., approximately 6 days later) according to the manufacturer's recommended instructions, where the CellTiter-Glo reagent is added (e.g., approximately 10 μL), vigorously mixed, covered, and placed on a plate shaker (e.g., approximately for 20 min) to ensure sufficient cell lysis prior to assessment of luminescent signal. The IC50 values are determined using the four parameter fit. The resulting IC50 value is a measurement of the ability of the compounds herein to reduce cell growth of Ras-driven cells (e.g., tumor cell lines) in vitro and/or in vivo.

[4] = molecular target: T3, K-Ras G12D (Homo sapiens, UniProt P01116, G12D); experiment: HTRF resonance energy transfer assay, K-Ras G12D / SOS1 interaction; type: biochemical; details: HTRF assay of Example 5; read-out: IC50 against K-Ras G12D
T3 construct: made in house; host or cells: E. coli BL21 (DE3)
Outline: as §1

[5] = molecular target: T4, K-Ras WT (Homo sapiens, UniProt P01116); experiment: HTRF resonance energy transfer assay, K-Ras WT / SOS1 interaction; type: biochemical; details: HTRF assay of Example 5; read-out: IC50 against K-Ras WT
T4 construct: made in house; host or cells: E. coli BL21 (DE3)
Outline: as §1

T3 sequence (P01116 1-188 isoform P01116-2 G12D): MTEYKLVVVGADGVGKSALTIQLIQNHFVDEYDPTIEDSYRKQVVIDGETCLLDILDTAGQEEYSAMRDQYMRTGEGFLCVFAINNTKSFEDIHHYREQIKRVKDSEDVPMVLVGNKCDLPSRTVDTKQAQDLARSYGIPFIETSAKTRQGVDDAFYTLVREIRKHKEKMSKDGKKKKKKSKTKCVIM
T1 sequence (P01116 1-188 isoform P01116-2 G12S): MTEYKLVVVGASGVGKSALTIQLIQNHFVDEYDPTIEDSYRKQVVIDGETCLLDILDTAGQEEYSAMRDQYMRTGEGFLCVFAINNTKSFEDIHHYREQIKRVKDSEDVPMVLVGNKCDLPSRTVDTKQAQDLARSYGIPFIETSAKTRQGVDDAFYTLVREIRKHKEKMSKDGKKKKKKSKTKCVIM
T4 sequence (P01116 1-188 isoform P01116-2): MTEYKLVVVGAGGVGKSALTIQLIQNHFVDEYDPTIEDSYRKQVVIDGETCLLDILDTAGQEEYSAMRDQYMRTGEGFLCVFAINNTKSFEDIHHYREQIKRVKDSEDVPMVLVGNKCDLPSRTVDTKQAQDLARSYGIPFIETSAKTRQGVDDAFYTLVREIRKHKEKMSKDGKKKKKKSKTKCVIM
T2 sequence (P01116 1-188 isoform P01116-2 G12V): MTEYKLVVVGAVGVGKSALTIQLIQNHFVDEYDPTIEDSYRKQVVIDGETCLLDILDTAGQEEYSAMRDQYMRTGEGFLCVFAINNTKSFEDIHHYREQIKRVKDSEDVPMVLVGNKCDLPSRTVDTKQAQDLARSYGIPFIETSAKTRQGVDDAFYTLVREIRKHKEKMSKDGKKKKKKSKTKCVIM

## CC1COc2c(Cl)c(-c3ccc(F)c4sc(N)c(C#N)c34)c(F)c3nc(OC[C@@]45CCCN4C[C@H](F)C5)nc(c23)N1CC(F)F (single isomer, unassigned) [Compound 616]
[1]
  IC50: < 100 nM
[2]
  IC50: < 100 nM
[3]
  IC50: < 5000 nM
[4]
  IC50: < 100 nM
[5]
  IC50: < 100 nM

## N#Cc1c(N)sc2c(F)ccc(-c3c(Cl)c4c5c(nc(OC[C@@]67CCCN6C[C@H](F)C7)nc5c3F)N(CC(F)F)C(CC3CC3C#N)CO4)c12 (single isomer, unassigned) [Compound 674]
[2]
  IC50: < 100 nM
[3]
  IC50: < 5000 nM
[4]
  IC50: < 100 nM
[5]
  IC50: < 100 nM

## N#Cc1c(N)sc2c(F)ccc(-c3c(Cl)c4c5c(nc(OC[C@@]67CCCN6C[C@H](F)C7)nc5c3F)N(CC(F)F)[C@@H](C=C(F)F)CO4)c12 (single isomer, unassigned) [Compound 751]
[1]
  IC50: < 100 nM
[2]
  IC50: < 100 nM
[3]
  IC50: < 5000 nM
[4]
  IC50: < 100 nM
[5]
  IC50: < 100 nM

## CN(C)C(=O)C1CC(N2CCOc3c(Cl)c(-c4ccc(F)c5sc(N)c(C#N)c45)c(F)c4nc(OC[C@@]56CCCN5C[C@H](F)C6)nc2c34)C1 (single isomer, unassigned) [Compound 754]
[1]
  IC50: < 100 nM
[2]
  IC50: < 100 nM
[3]
  IC50: < 5000 nM
[4]
  IC50: < 100 nM
[5]
  IC50: < 100 nM

## N#Cc1c(N)sc2c(F)ccc(-c3c(Cl)c4c5c(nc(OC[C@@]67CCCN6C[C@H](F)C7)nc5c3F)N(CC3CC3C#N)[C@@H](C3(O)CC3)CO4)c12 (single isomer, unassigned) [Compound 821]
[1]
  IC50: < 100 nM
[2]
  IC50: < 100 nM
[3]
  IC50: < 5000 nM
[4]
  IC50: < 100 nM
[5]
  IC50: < 100 nM

## N#Cc1c(N)sc2c(F)ccc(-c3c(Cl)c4c5c(nc(OC[C@@]67CCCN6C[C@H](F)C7)nc5c3F)N(C3CCOC3)[C@@H](C(F)F)CO4)c12 (stereo partly drawn) [Compound 747, 2-amino-4-((5R)-8-chloro-5-(difluoromethyl)-10-fluoro-2-(((2R,7aS)-2-fluorotetrahydro-1H-pyrrolizin-7a(5H)-yl)methoxy)-4-(tetrahydrofuran-3-yl)-5,6-dihydro-4H-[1,4]oxazepino[5,6,7-de]quinazolin-9-yl)-7-fluorobenzo[b]thiophene-3-carbonitrile]
[3]
  IC50: < 5000 nM

## N#Cc1c(N)sc2c(F)ccc(-c3c(Cl)c4c5c(nc(OC[C@@]67CCCN6C[C@H](F)C7)nc5c3F)N(CC(F)F)C(C3CCCN3)CO4)c12 (stereo partly drawn) [Compound 784, 2-amino-4-(8-chloro-4-(2,2-difluoroethyl)-10-fluoro-2-(((2R,7aS)-2-fluorotetrahydro-1H-pyrrolizin-7a(5H)-yl)methoxy)-5-(pyrrolidin-2-yl)-5,6-dihydro-4H-[1,4]oxazepino[5,6,7-de]quinazolin-9-yl)-7-fluorobenzo[b]thiophene-3-carbonitrile]
[2]
  IC50: < 100 nM
[3]
  IC50: < 5000 nM
[4]
  IC50: < 100 nM

## CS(=O)(=O)NCC1COc2c(Cl)c(-c3ccc(F)c4sc(N)c(C#N)c34)c(F)c3nc(OC[C@@]45CCCN4C[C@H](F)C5)nc(c23)N1CC(F)F (stereo partly drawn) [Compound 847, N-((9-(2-amino-3-cyano-7-fluorobenzo[b]thiophen-4-yl)-8-chloro-4-(2,2-difluoroethyl)-10-fluoro-2-(((2R,7aS)-2-fluorotetrahydro-1H-pyrrolizin-7a(5H)-yl)methoxy)-5,6-dihydro-4H-[1,4]oxazepino[5,6,7-de]quinazolin-5-yl)methyl)methanesulfonamide]
[2]
  IC50: < 100 nM
[3]
  IC50: < 5000 nM

## C[C@H]1CN(CC2(N(C)C)CCC2)c2nc(OC[C@@]34CCCN3C[C@H](F)C4)nc3c(F)c(-c4ccc(F)c5sc(N)c(C#N)c45)c(Cl)c(c23)O1 [Compound 978, 2-amino-4-((6S)-8-chloro-4-((1-(dimethylamino)cyclobutyl)methyl)-10-fluoro-2-(((2R,7aS)-2-fluorotetrahydro-1H-pyrrolizin-7a(5H)-yl)methoxy)-6-methyl-5,6-dihydro-4H-[1,4]oxazepino[5,6,7-de]quinazolin-9-yl)-7-fluorobenzo[b]thiophene-3-carbonitrile]
[1]
  IC50: < 100 nM
[2]
  IC50: < 100 nM
[3]
  IC50: < 5000 nM

## N#Cc1c(N)sc2c(F)ccc(-c3c(Cl)c4c5c(nc(OC[C@@]67CCCN6C[C@H](F)C7)nc5c3F)N(C3CCCCN(C(=O)C5CN5)C3)CCO4)c12 (stereo partly drawn) [Compound 992, 2-amino-4-(4-(1-(aziridine-2-carbonyl)azepan-3-yl)-8-chloro-10-fluoro-2-(((2R,7aS)-2-fluorotetrahydro-1H-pyrrolizin-7a(5H)-yl)methoxy)-5,6-dihydro-4H-[1,4]oxazepino[5,6,7-de]quinazolin-9-yl)-7-fluorobenzo[b]thiophene-3-carbonitrile]
[3]
  IC50: < 5000 nM

## N#Cc1c(N)sc2c(F)ccc(-c3c(Cl)c4c5c(nc(OC[C@@]67CCCN6C[C@H](F)C7)nc5c3F)N(CC(F)F)[C@@H](C3(O)CC3)CO4)c12 [Compound 1001, 2-amino-4-((R)-8-chloro-4-(2,2-difluoroethyl)-10-fluoro-2-(((2R,7aS)-2-fluorotetrahydro-1H-pyrrolizin-7a(5H)-yl)methoxy)-5-(1-hydroxycyclopropyl)-5,6-dihydro-4H-[1,4]oxazepino[5,6,7-de]quinazolin-9-yl)-7-fluorobenzo[b]thiophene-3-carbonitrile]
[3]
  IC50: < 5000 nM

## N#Cc1c(N)sc2c(F)ccc(-c3c(Cl)c4c5c(nc(OC[C@@]67CCCN6C[C@H](F)C7)nc5c3F)N(CC(F)F)C(C3CNC3)CO4)c12 (stereo partly drawn) [Compound 1131, 2-amino-4-(5-(azetidin-3-yl)-8-chloro-4-(2,2-difluoroethyl)-10-fluoro-2-(((2R,7aS)-2-fluorotetrahydro-1H-pyrrolizin-7a(5H)-yl)methoxy)-5,6-dihydro-4H-[1,4]oxazepino[5,6,7-de]quinazolin-9-yl)-7-fluorobenzo[b]thiophene-3-carbonitrile]
[1]
  IC50: < 100 nM
[2]
  IC50: < 100 nM
[4]
  IC50: < 100 nM
[5]
  IC50: < 100 nM

## N#Cc1c(N)sc2c(F)ccc(-c3c(Cl)c4c5c(nc(OC[C@@]67CCCN6C[C@H](F)C7)nc5c3F)N(CC3(N)CCC3)CCCO4)c12 [Compound 1213, 2-amino-4-(4-((1-aminocyclobutyl)methyl)-9-chloro-11-fluoro-2-(((2R,7aS)-2-fluorotetrahydro-1H-pyrrolizin-7a(5H)-yl)methoxy)-4,5,6,7-tetrahydro-[1,5]oxazocino [4,3,2-de]quinazolin-10-yl)-7-fluorobenzo[b]thiophene-3-carbonitrile]
[1]
  IC50: < 100 nM
[2]
  IC50: < 100 nM
[4]
  IC50: < 100 nM
[5]
  IC50: < 100 nM

## N#Cc1c(N)sc2c(F)ccc(-c3c(Cl)c4c5c(nc(OC[C@@]67CCCN6C[C@H](F)C7)nc5c3F)NCCC(CO)O4)c12 (stereo partly drawn) [Compound 1214, 2-amino-4-(9-chloro-11-fluoro-2-(((2R,7aS)-2-fluorotetrahydro-1H-pyrrolizin-7a(5H)-yl)methoxy)-7-(hydroxymethyl)-4,5,6,7-tetrahydro-[1,5]oxazocino[4,3,2-de]quinazolin-10-yl)-7-fluorobenzo[b]thiophene-3-carbonitrile]
[1]
  IC50: < 100 nM
[2]
  IC50: < 100 nM
[4]
  IC50: < 100 nM
[5]
  IC50: < 100 nM
